Reference: US5140009A (Tap Pharmaceuticals, Inc., priority 1990, dated 1992)
Numbered stars: 1 amine (or outer) side, 2 acyl side, 3 side chain; on linkers, the order of the positions; unused ones are H or OH. Square brackets hold non-standard residues; d marks the D form. Side chains are listed from the residue outwards. Peptide text beside a SMILES is read from it. * marks the point of attachment. Propanoyl(3-(4-F-phenyl)) = O=C(CCc1ccc(F)cc1)*; 1Nal = N[C@@H](Cc1cccc2ccccc12)C(=O)O; d1Nal = N[C@H](Cc1cccc2ccccc12)C(=O)O; Lys(iPr) = CC(C)NCCCC[C@H](N)C(=O)O; NMeY = CN[C@@H](Cc1ccc(O)cc1)C(=O)O; dBta = N[C@H](Cc1csc2ccccc12)C(=O)O; Pyrazinecarbonyl = O=C(c1cnccn1)*; Piperazinyl(4-Me) = CN1CCN(*)CC1; dCha = N[C@H](CC1CCCCC1)C(=O)O; Nicotinoyl = O=C(c1cccnc1)*; CO = O=C([*:1])[*:2]; Sar = CNCC(=O)O

What was measured:
[1] = target: T1, LHRH receptors (Rattus norvegicus, UniProt P30969); assay: Receptor Binding (radioligand receptor binding assay); conditions: rat pituitary membranes, 2 hours at 4° C.; for Ki: read-out: Receptor Binding pkI (converted)
T1 construct: Pituitary membranes containing LHRH receptors are prepared in batches from quick-frozen rat pituitaries; tissue Hilltop Labs; host or cells: rat pituitary membranes
T1 sequence (P30969 1-327): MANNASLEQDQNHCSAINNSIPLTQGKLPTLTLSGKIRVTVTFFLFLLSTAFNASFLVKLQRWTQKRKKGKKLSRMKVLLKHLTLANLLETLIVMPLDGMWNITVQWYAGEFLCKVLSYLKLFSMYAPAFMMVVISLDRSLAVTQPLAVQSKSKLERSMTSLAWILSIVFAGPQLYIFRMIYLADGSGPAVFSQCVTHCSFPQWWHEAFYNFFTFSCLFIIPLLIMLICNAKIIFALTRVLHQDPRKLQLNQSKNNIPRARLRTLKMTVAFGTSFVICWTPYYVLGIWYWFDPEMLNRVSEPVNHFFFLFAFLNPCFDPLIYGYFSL

[2] = test system: male castrate rats; assay: In vivo LH Inhibiton; set-up: species or system rat; conditions: table 4, 30 ug/kg subcutaneously by bolus injection, AUC of log (LHt /LHi)
Method: (c) In vivo LH Inhibiton. The compound to be tested is administered at 30 ug/kg subcutaneously by bolus injection to male castrate rats and blood samples are collected periodically over 24 hours. The AUC (area under the curve) of the LH suppression data as a function of time is calculated using the formula log (LHt /LHi) wherein LHt is the LH concentration in the blood at time t and LHi is the initial baseline LH concentration in the blood. The AUC values are negative numbers.

[3] = test system: castrated rats; assay: In vivo LH Release; set-up: species or system rat; conditions: table 3, dose producing half-maximal LH release
Method: (d) In vivo LH Release. The compound to be tested is administered to castrated rats intraveneously and the serum LH concentration at various time points is measured by RIA. The time integrated LH response is calculated and the dose producing half-maximal LH release (ED50) is reported.

[4] = target: T2, Rat pituitaries (Rattus norvegicus, UniProt P30969); assay: In vitro LH release suppression by LHRH antagonists in presence of superagonist [D-Leu^6 -Pro^9 NHEt]LHRH (pA2); type: cell-based; conditions: negative log of concentration producing half-maximum suppression of LH
T2 sequence (P30969 1-327): T1 sequence (P30969 1-327)

Compound | Ki ([1]; table 4, radioligand 50 pM) [nM] | AUC (24 hr. after 30 ug/kg) [2] | further results
CC(C)C[C@H](NC(=O)[C@@H](CCCCN)NC(=O)[C@H](Cc1ccc(O)cc1)N(C)C(=O)[C@H](CO)NC(=O)[C@@H](Cc1csc2ccccc12)NC(=O)CCc1ccc(F)cc1)C(=O)N[C@@H](CCCNC(=N)N)C(=O)N1CCC[C@H]1C(=O)N[C@H](C)C(N)=O [Compound 177, (3-10)[N-(3-(4-Fluorophenyl)propionyl)-D-3-Bal^3 -NMeTyr^5 -D-Lys^6 -D-Ala^10]LHRH] ({Propanoyl(3-(4-F-phenyl))}-[dBta]S[NMeY][dK]LRP[dA]-NH2) | 0.00589 | -938 | 
CC(C)C[C@H](NC(=O)[C@@H](CCCCNC(=O)c1cccnc1)NC(=O)[C@H](Cc1ccc(O)cc1)N(C)C(=O)[C@H](CO)NC(=O)[C@@H](Cc1c[nH]c2ccccc12)NC(=O)CCc1ccc(F)cc1)C(=O)N[C@@H](CCCCNC(C)C)C(=O)N1CCC[C@H]1C(=O)N[C@H](C)C(N)=O [Compound 195, (3-10)[N-(3-(4-Fluorophenyl)propionyl)-D-Trp^3 -NMeTyr^5 -D-Lys^6 (N-epsilon-nicotinyl)-Lys^8 (N-epsilon-isopropyl)-D-Ala^10]LHRH] ({Propanoyl(3-(4-F-phenyl))}-[dW]S[NMeY][dK](Nicotinoyl)L[Lys(iPr)]P[dA]-NH2) | 0.0234 | -158 | 
CC(C)C[C@H](NC(=O)[C@@H](CCCCNC(=O)c1cccnc1)NC(=O)[C@H](Cc1ccc(O)cc1)N(C)C(=O)[C@H](CO)NC(=O)[C@@H](Cc1cccc2ccccc12)NC(=O)CCc1ccc(F)cc1)C(=O)N[C@@H](CCCCNC(C)C)C(=O)N1CCC[C@H]1C(=O)N[C@H](C)C(N)=O [Compound 197, (3-10)[N-(3-(4-Fluorophenyl)propionyl)-D-1-Nal^3 -NMeTyr^5 -D-Lys^6 (N-epsilon-nicotinyl)-Lys^8 (N-epsilon-isopropyl)-D-Ala^10]LHRH] ({Propanoyl(3-(4-F-phenyl))}-[d1Nal]S[NMeY][dK](Nicotinoyl)L[Lys(iPr)]P[dA]-NH2) | 0.0112 | -688 | 
CC(C)C[C@H](NC(=O)[C@@H](CCCCNC(=O)c1cnccn1)NC(=O)[C@H](Cc1ccc(O)cc1)N(C)C(=O)[C@H](CO)NC(=O)[C@@H](Cc1cccc2ccccc12)NC(=O)CCc1ccc(F)cc1)C(=O)N[C@@H](CCCCNC(C)C)C(=O)N1CCC[C@H]1C(=O)N[C@H](C)C(N)=O [Compound 207, (3-10)[N-(3-(4-Fluorophenyl)propionyl)-D-1-Nal^3 -NMeTyr^5 -D-Lys^6 (N-epsilon-2-pyrazinyecarbonyl)-Lys^8 (N-epsilon-isopropyl)-D-Ala^10]LHRH] ({Propanoyl(3-(4-F-phenyl))}-[d1Nal]S[NMeY][dK](Pyrazinecarbonyl)L[Lys(iPr)]P[dA]-NH2) | 0.00288 | -412 | 
CCNC(=O)[C@@H]1CCCN1C(=O)[C@H](CCCCNC(C)C)NC(=O)[C@H](CC(C)C)NC(=O)[C@@H](CCCCNC(=O)c1cccnc1)NC(=O)[C@H](Cc1ccc(O)cc1)N(C)C(=O)[C@H](CO)NC(=O)[C@@H](Cc1cccc2ccccc12)NC(=O)CCc1ccc(F)cc1 [Compound 209, N-(3-(4-Fluorophenyl)propionyl)-D-1-Nal-Ser-NMeTyr-D-Lys(N-epsilon-nicotinyl)-Leu-Lys(N-epsilon-isopropyl)-Pro-NHEt] ({Propanoyl(3-(4-F-phenyl))}-[d1Nal]S[NMeY][dK](Nicotinoyl)L[Lys(iPr)]P-NHEt) | 0.0024 | -343 | 
CC(C)C[C@H](NC(=O)[C@@H](CCCCNC(=O)N1CCN(C)CC1)NC(=O)[C@H](Cc1ccc(O)cc1)N(C)C(=O)[C@H](CO)NC(=O)[C@@H](Cc1cccc2ccccc12)NC(=O)CCc1ccc(F)cc1)C(=O)N[C@@H](CCCNC(=N)N)C(=O)N1CCC[C@H]1C(=O)N[C@H](C)C(N)=O [Compound 211, N-(3-(4-Fluorophenyl)propionyl)-D-1-Nal-Ser-NMeTyr-D-Lys(N-epsilon-N'-N"-methylpiperazinecarbonyl)-Leu-Arg-Pro-D-AlaNH2] ({Propanoyl(3-(4-F-phenyl))}-[d1Nal]S[NMeY][dK]([CO-Piperazinyl(4-Me)])LRP[dA]-NH2) | 0.0151 | -449 | 
CCNC(=O)N[C@@H](Cc1ccccc1)C(=O)N[C@@H](Cc1cccc2ccccc12)C(=O)N[C@@H](CO)C(=O)N[C@@H](Cc1ccc(O)cc1)C(=O)N[C@H](Cc1c[nH]c2ccccc12)C(=O)N[C@@H](CC(C)C)C(=O)N[C@@H](CCCNC(=N)N)C(=O)N1CCC[C@H]1C(=O)NCC [Compound 239, (2-9)[N-(alpha-Ethylaminocarbonyl)-Phe^2-1-Nal^3 -D-Trp^6 -Pro^9 NHEt]LHRH] ({NHEt-CO}-F[1Nal]SY[dW]LRP-NHEt) | 0.832 |  | 
CC(C)C[C@H](NC(=O)[C@@H](CCCCNC(=O)c1cccnc1)NC(=O)[C@H](Cc1ccccc1)NC(=O)[C@H](CO)NC(=O)[C@@H](Cc1cccc2ccccc12)NC(=O)CCc1ccc(F)cc1)C(=O)N[C@@H](CCCCNC(C)C)C(=O)N1CCC[C@H]1C(=O)N[C@H](C)C(N)=O [Compound 252, (3-10)[N-(3-(4-Fluorophenyl)propionyl)-D-1-Nal^3 -Phe^5 -D-Lys^6 (N-epsilon-nicotinyl)-Lys^8 (N-epsilon-isopropyl)-D-Ala^10]LHRH] ({Propanoyl(3-(4-F-phenyl))}-[d1Nal]SF[dK](Nicotinoyl)L[Lys(iPr)]P[dA]-NH2) | 0.0132 |  | 
CC(C)C[C@H](NC(=O)[C@@H](CCCCNC(=O)c1cccnc1)NC(=O)[C@H](Cc1ccc(O)cc1)N(C)C(=O)[C@H](CO)NC(=O)[C@@H](Cc1csc2ccccc12)NC(=O)CCc1ccc(F)cc1)C(=O)N[C@@H](CCCCNC(C)C)C(=O)N1CCC[C@H]1C(=O)N[C@H](C)C(N)=O [Compound 253, (3-10)[N-(3-(4-Fluorophenyl)propionyl)-D-3-Bal^3 -NMeTyr^5 -D-Lys^6 (N-epsilon-nicotinyl)-Lys^8 (N-epsilon-isopropyl)-D-Ala^10]LHRH] ({Propanoyl(3-(4-F-phenyl))}-[dBta]S[NMeY][dK](Nicotinoyl)L[Lys(iPr)]P[dA]-NH2) | 0.00933 |  | 
CC(C)C[C@H](NC(=O)[C@@H](CCCCNC(=O)c1cccnc1)NC(=O)[C@H](Cc1ccc(O)cc1)N(C)C(=O)[C@H](CO)NC(=O)[C@@H](CC1CCCCC1)NC(=O)CCc1ccc(F)cc1)C(=O)N[C@@H](CCCCNC(C)C)C(=O)N1CCC[C@H]1C(=O)N[C@H](C)C(N)=O [Compound 254, (3-10)[N-(3-(4-Fluorophenyl)propionyl)-D-Cha^3 -NMeTyr^5 -D-Lys^6 (N-epsilon-nicotinyl)-Lys^8 (N-epsilon-isopropyl)-D-Ala^10]LHRH] ({Propanoyl(3-(4-F-phenyl))}-[dCha]S[NMeY][dK](Nicotinoyl)L[Lys(iPr)]P[dA]-NH2) | 0.012 |  | 
CC(C)C[C@H](NC(=O)[C@@H](CCCCNC(=O)c1cccnc1)NC(=O)[C@H](Cc1ccc(O)cc1)N(C)C(=O)[C@H](CO)NC(=O)[C@@H](Cc1cccc2ccccc12)NC(=O)CCc1ccc(F)cc1)C(=O)N[C@@H](CCCCNC(C)C)C(=O)N1CCC[C@H]1C(=O)N(C)CC(N)=O [Compound 255, N-(3-(4-Fluorophenyl)propionyl)-D-1-Nal-Ser-NMeTyr-D-Lys(N-epsilon-nicotinyl)-Leu-Lys(N-epsilon-isopropyl)-Pro-SarNH2] ({Propanoyl(3-(4-F-phenyl))}-[d1Nal]S[NMeY][dK](Nicotinoyl)L[Lys(iPr)]P[Sar]-NH2) | 0.0151 |  | 
CC(C)C[C@H](NC(=O)CNC(=O)[C@H](Cc1ccc(O)cc1)NC(=O)[C@H](CO)NC(=O)[C@H](Cc1c[nH]c2ccccc12)NC(=O)[C@H](Cc1c[nH]cn1)NC(=O)[C@@H]1CCC(=O)N1)C(=O)N[C@@H](CCCNC(=N)N)C(=O)N1CCC[C@H]1C(=O)NCC(N)=O [LHRH, Luteinizing hormone releasing hormone] |  |  | ED50 ug/kg i.v. [3]: 859 µg/kg
(2-9)[N-(N-alpha-Morpholinocarbonyl)-D,L-4-F-Phe^2 -D-Trp^6 -Pro^9 NHEt]LHRH [Compound 113] |  |  | LH Inhibition pA2 ([4]; table 3): 8.63; Receptor Binding pkI ([1]; table 3, radioiodinated [D-Leu^6 -des Gly^10 ]-LHRH ethyl amide 50 pM): 9.51
(3-10)[N-(3-(4-Fluorophenyl)propionyl)-D-1-Nal^3 -D-Lys^6 (N-epsilon-4-methoxybenzoyl)-Lys^8 (N-epsilon-isopropyl)-D-Ala^10 ]LHRH [Compound 206] |  | -412 | 
(3-10)[N-(3-(4-Fluorophenyl)propionyl)-D-Thia^3 -NMeTyr^5 -D-Lys^6 -D-Ala^ ]LHRH [Compound 166] |  | -208 | 
(3-10)[N-(3-(4-Fluorophenyl)propionyl)-D-Trp^3 -NMeTyr^5 -D-Lys^6 (N-epsilon-nicotinyl)-D-Ala^10 ]LHRH [Compound 163] |  | -361 | 
(3-10)[N-(3-(4-Fluorophenyl)propionyl)-D-Trp^3 -NMeTyr^5 -D-Lys^6 -D-Ala^10 ]LHRH [Compound 182] |  |  | LH Inhibition pA2 ([4]; table 4): 9.32; Receptor Binding pkI ([1]; table 4, radioligand 50 pM): 10.55
